Results from patent US11130793B2, “GLP-1/GLP-2 dual agonists” (Zealand Pharma A/S, priority 2016, dated 2021).
Square brackets hold non-standard residues; d marks the D form. Peptide text beside a SMILES is read from it. Aib = CC(C)(N)C(=O)O

Experiments:
human GLP-1 receptor = biological target: T1, human GLP-1 receptor (Homo sapiens, UniProt P43220); assay: GLP-1 receptor potency assay (cAMP AlphaScreen, HEK293 cells stably expressing GLP-1R); type: cell-based; conditions: cAMP response, HEK293 cells expressing human GLP-1R; read-out: EC50 GLP-1
T1 construct: expressed in transfected cells
Excerpt: (§1) One useful in vitro assay for measuring GLP-1 and GLP-2 receptor activity is quantitation of cAMP, i.e. 3′-5′-cyclic adenosine monophosphate, which is a second messenger essential in many biological processes, and one of the most ubiquitous mechanisms for regulating cellular functions. […] Test compounds eliciting an increase in the intracellular level of cAMP can be tested in these assays, and the response normalized relative to a positive and negative control (vehicle) to calculate the EC50 and maximal response from the concentration response curve using the 4-parameter logistic (4PL) nonlinear model for curve fitting.
The cDNA encoding the human glucagon-like peptide 1 receptor (GLP-1R) (primary accession number P43220) was cloned from the cDNA BC112126 (MGC:138331/IMAGE:8327594). The DNA encoding the GLP-1-R was amplified by PCR using primers encoding terminal restriction sites for subcloning. The 5′-end primers additionally encoded a near Kozak consensus sequence to ensure efficient translation. […] The PCR products encoding the GLP-1-R were subcloned into a mammalian expression vector containing a neomycin (G418) resistance marker. The mammalian expression vectors encoding the GLP-1-R were transfected into HEK293 cells by a standard calcium phosphate transfection method. 48 hours post-transfection, cells were seeded for limited dilution cloning and selected with 1 mg/ml G418 in the culture medium. Following 3 weeks in G418 selection clones were picked and tested in a functional GLP-1 receptor potency assay as described below.
(§2) The cAMP AlphaScreen assay from Perkin Elmer was used to quantitate the cAMP response to activation of the GLP1 and GLP2 receptor, respectively. […] Data from test compounds eliciting an increase in the intracellular level of cAMP were normalized relative to the positive and negative control (vehicle) to calculate the EC50 and maximal response from the concentration response curve.

human GLP-2 receptor = biological target: T2, human GLP-2 receptor (Homo sapiens, UniProt O95838, D470N); assay: GLP-2 receptor potency assay (cAMP AlphaScreen, HEK293 cells stably expressing GLP-2R); type: cell-based; conditions: cAMP response, HEK293 cells expressing human GLP-2R
T2 sequence (O95838 1-553 D470N): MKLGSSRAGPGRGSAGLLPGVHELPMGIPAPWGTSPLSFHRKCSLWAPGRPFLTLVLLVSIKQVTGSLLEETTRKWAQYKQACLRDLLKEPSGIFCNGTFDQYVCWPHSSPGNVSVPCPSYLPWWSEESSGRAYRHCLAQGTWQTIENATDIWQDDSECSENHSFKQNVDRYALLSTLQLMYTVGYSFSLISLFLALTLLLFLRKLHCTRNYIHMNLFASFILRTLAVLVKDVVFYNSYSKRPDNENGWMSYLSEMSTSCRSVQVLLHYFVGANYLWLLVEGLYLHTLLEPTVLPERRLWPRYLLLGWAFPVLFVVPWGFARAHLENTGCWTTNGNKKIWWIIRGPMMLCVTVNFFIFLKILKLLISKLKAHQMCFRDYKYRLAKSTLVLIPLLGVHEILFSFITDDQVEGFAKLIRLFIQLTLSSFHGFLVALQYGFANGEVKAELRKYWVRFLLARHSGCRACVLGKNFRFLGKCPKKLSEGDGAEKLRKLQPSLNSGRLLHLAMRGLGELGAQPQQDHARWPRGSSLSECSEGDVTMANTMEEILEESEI
Excerpt: as §1
The hGLP2-R was purchased from MRC-geneservice, Babraham, Cambridge as an Image clone: 5363415 (11924-I17). For subcloning into a mammalian expression vector, primers for subcloning were obtained from DNA-Technology, Risskov, Denmark. The 5′ and 3′ primers used for the PCR reaction include terminal restriction sites for cloning and the context of the 5′ primer is modified to a Kozak consensus without changing the sequence of the product encoded by the ORF. A standard PCR reaction was run using Image clone 5363415 (11924-117) as a template with the above mentioned primers and Polymerase Herculase II Fusion in a total vol. of 50 μl. The generated PCR product was purified using GFX PCR and Gel band purification kit, digested with restriction enzymes and cloned into the mammalian expression vector using Rapid DNA Ligation Kit. Ligation reaction was transformed to XL10 Gold Ultracompetent cells and colonies were picked for DNA production using Endofree Plasmid maxi kit. Subsequent sequence analysis was conducted by MWG Eurofins, Germany.
HEK293 cells were transfected using the Lipofectamine PLUS transfection method. The day before transfection, HEK293 cells were seeded in two T75 flasks at a density of 2×10^6 cells/T75 flask in cell culturing medium without antibiotics. On the day of transfection, cells were washed with 1×DPBS and medium was replaced with Optimem to a volume of 5 mL/T75 flask before addition of Lipofectamine-plasmid complexes were added gently and drop wise to the cells in T75 flasks and replaced with growth medium after 3 hours and again to growth medium supplemented with 500 μg/mL G418 after 24 hours. Following 4 weeks in G418 selection, clones were picked and tested in a functional GLP-2 receptor potency assay as described below.
as §2

T1 sequence (P43220 24-463): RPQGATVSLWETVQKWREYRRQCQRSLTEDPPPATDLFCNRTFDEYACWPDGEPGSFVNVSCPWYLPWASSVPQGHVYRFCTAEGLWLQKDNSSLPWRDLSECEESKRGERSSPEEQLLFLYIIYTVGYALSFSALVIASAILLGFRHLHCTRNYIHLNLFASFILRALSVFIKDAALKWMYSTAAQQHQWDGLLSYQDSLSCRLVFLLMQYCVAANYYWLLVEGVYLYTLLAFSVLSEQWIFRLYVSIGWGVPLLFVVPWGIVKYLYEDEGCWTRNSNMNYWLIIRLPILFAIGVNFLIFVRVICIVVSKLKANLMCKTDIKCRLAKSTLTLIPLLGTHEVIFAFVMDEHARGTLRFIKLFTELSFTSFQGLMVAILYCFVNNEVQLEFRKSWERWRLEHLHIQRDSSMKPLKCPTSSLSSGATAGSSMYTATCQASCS

EC50 (human GLP-1 receptor) [nM]	EC50 (human GLP-2 receptor) [nM]	SMILES
0.004	0.041	CC[C@H](C)[C@H](NC(=O)[C@H](CC(C)C)NC(=O)[C@H](Cc1c[nH]c2ccccc12)NC(=O)[C@H](CC(N)=O)NC(=O)[C@@H](NC(=O)[C@H](Cc1ccccc1)NC(=O)[C@H](CC(=O)O)NC(=O)[C@H](CCCNC(=N)N)NC(=O)[C@H](C)NC(=O)[C@H](C)NC(=O)[C@H](CCC(N)=O)NC(=O)[C@H](CCC(=O)O)NC(=O)[C@H](CC(=O)O)NC(=O)[C@H](CC(C)C)NC(=O)[C@@H](NC(=O)[C@@H](NC(=O)[C@H](C)NC(=O)[C@H](CC(C)C)NC(=O)[C@H](CCC(=O)O)NC(=O)[C@H](CO)NC(=O)[C@@H](NC(=O)[C@H](Cc1ccccc1)NC(=O)[C@@H](NC(=O)CNC(=O)[C@H](CCC(=O)O)NC(=O)C(C)(C)NC(=O)[C@@H](N)Cc1c[nH]cn1)[C@@H](C)O)[C@@H](C)O)[C@@H](C)O)[C@@H](C)CC)[C@@H](C)CC)C(=O)N[C@@H](C)C(=O)N[C@@H](Cc1c[nH]cn1)C(=O)N[C@@H](CCCCN)C(=O)N[C@H](C(=O)N[C@H](C(=O)N[C@@H](CC(=O)O)C(=O)O)[C@@H](C)O)[C@@H](C)CC [Compound 33] (H-H[Aib]EGTFTSELATILDEQAARDFINWLIAHKITD-OH)
0.008	0.062	CC[C@H](C)[C@H](NC(=O)[C@H](CC(C)C)NC(=O)[C@H](Cc1c[nH]c2ccccc12)NC(=O)[C@H](C)NC(=O)[C@@H](NC(=O)[C@H](Cc1ccccc1)NC(=O)[C@H](CC(=O)O)NC(=O)[C@H](CCCNC(=N)N)NC(=O)[C@H](C)NC(=O)[C@H](C)NC(=O)[C@H](CCC(N)=O)NC(=O)[C@H](CCC(=O)O)NC(=O)[C@H](CC(=O)O)NC(=O)[C@H](CC(C)C)NC(=O)[C@@H](NC(=O)[C@@H](NC(=O)[C@H](C)NC(=O)[C@H](CC(C)C)NC(=O)[C@H](CCC(=O)O)NC(=O)[C@H](CO)NC(=O)[C@@H](NC(=O)[C@H](Cc1ccccc1)NC(=O)[C@H](CO)NC(=O)CNC(=O)[C@H](CCC(=O)O)NC(=O)C(C)(C)NC(=O)[C@@H](N)Cc1c[nH]cn1)[C@@H](C)O)[C@@H](C)O)[C@@H](C)CC)[C@@H](C)CC)C(=O)N[C@@H](C)C(=O)N[C@@H](CCC(N)=O)C(=O)N[C@@H](CCCCN)C(=O)N[C@H](C(=O)N[C@H](C(=O)N[C@@H](CC(=O)O)C(=O)O)[C@@H](C)O)[C@@H](C)CC [Compound 25] (H-H[Aib]EGSFTSELATILDEQAARDFIAWLIAQKITD-OH)
0.005	0.038	CC[C@H](C)[C@H](NC(=O)[C@H](Cc1ccccc1)NC(=O)[C@H](CC(=O)O)NC(=O)[C@H](CCCNC(=N)N)NC(=O)[C@H](C)NC(=O)[C@H](C)NC(=O)[C@H](CCC(N)=O)NC(=O)[C@H](CCC(=O)O)NC(=O)[C@H](CC(=O)O)NC(=O)[C@H](CC(C)C)NC(=O)[C@@H](NC(=O)[C@@H](NC(=O)[C@H](C)NC(=O)[C@H](CC(C)C)NC(=O)[C@H](CCC(=O)O)NC(=O)[C@H](CO)NC(=O)[C@@H](NC(=O)[C@H](Cc1ccccc1)NC(=O)[C@@H](NC(=O)CNC(=O)[C@H](CCC(=O)O)NC(=O)C(C)(C)NC(=O)[C@@H](N)Cc1c[nH]cn1)[C@@H](C)O)[C@@H](C)O)[C@@H](C)O)[C@@H](C)CC)C(=O)N[C@@H](C)C(=O)N[C@@H](Cc1c[nH]c2ccccc12)C(=O)N[C@@H](CC(C)C)C(=O)N[C@H](C(=O)N[C@@H](CCC(N)=O)C(=O)N[C@@H](Cc1c[nH]cn1)C(=O)N[C@@H](CCCCN)C(=O)N[C@H](C(=O)N[C@H](C(=O)N[C@@H](CC(=O)O)C(=O)O)[C@@H](C)O)[C@@H](C)CC)[C@@H](C)CC [Compound 15] (H-H[Aib]EGTFTSELATILDEQAARDFIAWLIQHKITD-OH)
0.055	0.076	CC[C@H](C)[C@H](NC(=O)[C@H](Cc1ccccc1)NC(=O)[C@H](CC(=O)O)NC(=O)[C@H](CCCNC(=N)N)NC(=O)[C@H](C)NC(=O)[C@H](C)NC(=O)[C@H](CCC(N)=O)NC(=O)[C@H](CCC(=O)O)NC(=O)[C@H](CC(=O)O)NC(=O)[C@H](CC(C)C)NC(=O)[C@@H](NC(=O)[C@@H](NC(=O)[C@H](C)NC(=O)[C@H](CC(C)C)NC(=O)[C@H](CCC(=O)O)NC(=O)[C@H](CO)NC(=O)[C@@H](NC(=O)[C@H](Cc1ccccc1)NC(=O)[C@@H](NC(=O)CNC(=O)[C@H](CCC(=O)O)NC(=O)C(C)(C)NC(=O)[C@@H](N)Cc1c[nH]cn1)[C@@H](C)O)[C@@H](C)O)[C@@H](C)O)[C@@H](C)CC)C(=O)N[C@@H](C)C(=O)N[C@@H](Cc1c[nH]c2ccccc12)C(=O)N[C@@H](CC(C)C)C(=O)N[C@@H](Cc1c[nH]cn1)C(=O)N[C@@H](C)C(=O)N[C@@H](Cc1c[nH]cn1)C(=O)N[C@@H](CCCCN)C(=O)N[C@H](C(=O)N[C@H](C(=O)N[C@@H](CC(=O)O)C(=O)O)[C@@H](C)O)[C@@H](C)CC [Compound 12] (H-H[Aib]EGTFTSELATILDEQAARDFIAWLHAHKITD-OH)
0.038	0.15	CC[C@H](C)[C@H](NC(=O)[C@H](CC(C)C)NC(=O)[C@H](Cc1c[nH]c2ccccc12)NC(=O)[C@H](C)NC(=O)[C@@H](NC(=O)[C@H](Cc1ccccc1)NC(=O)[C@H](CC(=O)O)NC(=O)[C@H](CCCNC(=N)N)NC(=O)[C@H](C)NC(=O)[C@H](C)NC(=O)[C@H](CCCCN)NC(=O)CNC(=O)[C@H](CC(=O)O)NC(=O)[C@H](CC(C)C)NC(=O)[C@@H](NC(=O)[C@@H](NC(=O)[C@H](C)NC(=O)[C@H](CC(C)C)NC(=O)[C@H](CCC(=O)O)NC(=O)[C@H](CO)NC(=O)[C@H](CO)NC(=O)[C@H](Cc1ccccc1)NC(=O)[C@@H](NC(=O)CNC(=O)[C@H](CCC(=O)O)NC(=O)C(C)(C)NC(=O)[C@@H](N)Cc1c[nH]cn1)[C@@H](C)O)[C@@H](C)O)[C@@H](C)CC)[C@@H](C)CC)C(=O)N[C@@H](C)C(=O)N[C@@H](Cc1c[nH]cn1)C(=O)N[C@@H](CCCCN)C(=O)N[C@H](C(=O)N[C@H](C(=O)N[C@@H](CC(=O)O)C(=O)O)[C@@H](C)O)[C@@H](C)CC [Compound 32] (H-H[Aib]EGTFSSELATILDGKAARDFIAWLIAHKITD-OH)
0.005	0.15	CC[C@H](C)[C@H](NC(=O)[C@H](CC(C)C)NC(=O)[C@H](Cc1c[nH]c2ccccc12)NC(=O)[C@H](C)NC(=O)[C@@H](NC(=O)[C@H](Cc1ccccc1)NC(=O)[C@H](CC(=O)O)NC(=O)[C@H](CCCNC(=N)N)NC(=O)[C@H](C)NC(=O)[C@H](C)NC(=O)[C@H](CCC(N)=O)NC(=O)[C@H](CCC(=O)O)NC(=O)[C@H](CC(=O)O)NC(=O)[C@H](CC(C)C)NC(=O)[C@@H](NC(=O)[C@@H](NC(=O)[C@H](C)NC(=O)[C@H](CC(C)C)NC(=O)[C@H](CCC(=O)O)NC(=O)[C@H](CO)NC(=O)[C@@H](NC(=O)[C@H](Cc1ccccc1)NC(=O)[C@@H](NC(=O)CNC(=O)[C@H](CCC(=O)O)NC(=O)C(C)(C)NC(=O)[C@@H](N)Cc1c[nH]cn1)[C@@H](C)O)[C@@H](C)O)[C@@H](C)O)[C@@H](C)CC)[C@@H](C)CC)C(=O)N[C@@H](C)C(=O)N[C@@H](CCC(N)=O)C(=O)N[C@@H](CCCCN)C(=O)N[C@H](C(=O)N[C@H](C(=O)N[C@@H](CC(=O)O)C(=O)O)[C@@H](C)O)[C@@H](C)CC [Compound 19] (H-H[Aib]EGTFTSELATILDEQAARDFIAWLIAQKITD-OH)
